Measurements published in patent US7163700B2, “Amorphous drug beads” (Capricorn Pharma, Inc., priority 2001, dated 2007).

Assay: Dissolution test of amorphous Itraconazole drug beads versus crystalline Itraconazole (FIG. 1)
Format: physicochemical
Conditions: over the same time period
From the text: Quantities of Itraconazole and Pluronic™ F68 in a ratio of 9 parts Itraconazole to 1 part Pluronic™ F68 were melted separately in an oil bath. Once both components were completely melted, they were combined, emulsified with high shear, and poured onto a cold plate to cool rapidly.

dissolution rate (percent dissolution versus time): 20%
SMILES: CCC(C)n1ncn(-c2ccc(N3CCN(c4ccc(OCC5COC(Cn6cncn6)(c6ccc(Cl)cc6Cl)O5)cc4)CC3)cc2)c1=O (stereo not shown) [crystalline Itraconazole, 4-[4-[4-[4-[[2-(2,4-Dichlorophenyl)-2-(1H-1,2,4-triazol-1-ylmethyl)-1,3-dioxolan-4-yl]methoxy]phenyl]-1-piperazinyl]phenyl]-2,4-dihydro-2-(1-methylpropyl)-3H-1,2,4-triazol-3-one]
